Assay results reported in US20120315629A1, “Cloning and Expression of arNOX Protein Transmembrane 9 Superfamily (TM9SF), Methods and Utility” (Nox Technologies ,Inc., priority 2009, published 2012).

Target: T1, Recombinant arNOX (TM9SF4) (Homo sapiens, UniProt Q92544)
T1 construct: cloning of the soluble fragment of TM9SF4 was successful; Met-Ala-Ser leader from NdeI/NheI of pET11b (my inference from the forward primer CATATGGCTAGCATG); made in house; host or cells: E. coli BL21 (DE3), pET11b
T1 sequence (Q92544 24-252): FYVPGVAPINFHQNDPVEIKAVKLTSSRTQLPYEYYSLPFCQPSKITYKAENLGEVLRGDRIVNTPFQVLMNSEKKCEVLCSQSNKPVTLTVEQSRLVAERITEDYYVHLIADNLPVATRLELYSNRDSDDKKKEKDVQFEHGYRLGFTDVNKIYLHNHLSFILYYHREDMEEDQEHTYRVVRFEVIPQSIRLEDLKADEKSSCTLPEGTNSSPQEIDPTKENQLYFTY
Assay: arNOX activity: superoxide generation measured by reduction of ferricytochrome c
Assay type: biochemical
Conditions: test compounds added after 45 min, reaction continued for an additional 45 min; for inhibition of recombinant arNOX (TM9SF4) activity: extracts made in water unless otherwise indicated
Protocol: Reduction of ferric cytochrome c by superoxide was employed as a standard measure of superoxide formation (Mayo, L. A. and Curnutte, J., 1990, Meth. Enzymol. 186:567-575; Butler, J. et al., 1982, J. Biol. Chem. 257:10747-10750). This method, when coupled to superoxide dismutase inhibition, is generally accepted for the measurement of superoxide generation. The assay consists of 150 μl buffy coat material in PBSG buffer (8.06 g NaCl, 0.2 g KCl, 0.18 g Na2HPO4, 0.13 g CaCl2, 0.1 g MgCl2, 1.35 g glucose dissolved in 1000 ml deionized water, adjusted to pH 7.4, filtered and stored at 4° C.). Reduction of ferricytochrome c by superoxide was monitored as the increase in absorbance at 550 nm, with reference at 540 nm (Butler et al., 1982). As a further control for the specificity of the arNOX activity, 60 units of superoxide dismutase (SOD) were added near the end of the assay to ascertain that the rate returned to base line. Rates were determined using a SLM Aminco DW-2000 spectrophotometer in the dual wavelength mode of operation.
Rates were determined using an SLM Aminco DW-2000 spectrophotometer (Milton Roy, Rochester, N.Y.) in the dual wave length mode of operation with continuous measurements over 1 min every 1.5 min. After 45 min, test compounds were added and the reaction was continued for an additional 45 min. After 45 min, a millimolar extinction coefficient of 19.1 cm^−1 was used for reduced ferricytochrome c. The results of the test compounds are provided below (Table 4) for experiments carried out with TM9SF4, but from the results of FIG. 7, it is concluded that all the arNOX isoforms have similar responses to the various compounds given below. Extracts were made of the compounds in water unless otherwise indicated.

Row | Compound | inhibition of recombinant arNOX (TM9SF4) activity [%] | sensitivity of recombinant arNOX (TM9SF4) activity to the compound (in words)
1 | O=C(O)c1cc(O)c(O)c(O)c1 [gallic acid] | 80 | 
2 | CCC(C)C(=O)OC1C(=O)OC2CC3C(C)=CC(=O)C(O)C3(C)C3C(O)C(O)C4(C)OCC23C14 (stereo not drawn) [similikalactone D] |  | resistant
3 | superoxide dismutase | 78 | 
